Legend:
[1] = Non-clinical toxicity test: 39 weeks repeated oral administration, changes in body weight; type: in vivo, beagles
obese dogs = assay: Clinical trial in obese dogs: urine test strips, urinary glucose excretion; type: in vivo
Experimental: A total of 20 dogs were selected and divided into 4 groups with 5 dogs in each group: a normal obese control (OC); hereinafter, referred to as a control (OC)), an enavogliflozin 0.2-administered group, an enavogliflozin 0.5-administered group, and an enavogliflozin 1-administered group. The control was fed regular feed, and the enavogliflozin-administered groups were fed regular feed supplemented with enavogliflozin at doses of 0.2, 0.5, or 1 mg/kg, respectively. The feed was supplemented with enavogliflozin once a day for 8 weeks and given orally.
Serum insulin concentrations were measured 2, 4, 6, 8, and 10 weeks after the start of enavogliflozin administration using a Quantikine Canine Insulin ELISA kit (Catalog no. DINS00, R&D Systems, Minneapolis, MN, USA) according to the manufacturer's protocol. […]

[2] = 0.2 mg/kg once a day oral for 8 weeks, 10 weeks
[3] = 0.2 mg/kg once a day oral, 2 weeks
[4] = 0.2 mg/kg once a day oral, 4 weeks
[5] = 0.2 mg/kg once a day oral, 6 weeks
[6] = 0.2 mg/kg once a day oral, 8 weeks
[7] = 0.5 mg/kg once a day oral for 8 weeks, 10 weeks
[8] = 0.5 mg/kg once a day oral, 2 weeks
[9] = 0.5 mg/kg once a day oral, 4 weeks
[10] = 0.5 mg/kg once a day oral, 6 weeks
[11] = 0.5 mg/kg once a day oral, 8 weeks
[12] = 1 mg/kg once a day oral for 8 weeks, 10 weeks
[13] = 1 mg/kg once a day oral, 2 weeks
[14] = 1 mg/kg once a day oral, 4 weeks
[15] = 1 mg/kg once a day oral, 6 weeks
[16] = 1 mg/kg once a day oral, 8 weeks

SMILES: OC[C@H]1O[C@@H](c2cc(Cc3ccc(C4CC4)cc3)c(Cl)c3c2CCO3)[C@H](O)[C@@H](O)[C@@H]1O [Enavogliflozin, enavogliflozin]
- body weight decrease ([1]; normal female beagles, 1 mg/kg/day oral): 7.6%
- body weight decrease ([1]; normal female beagles, 3 mg/kg/day oral): 11.8%
- body weight decrease ([1]; normal female beagles, 6 mg/kg/day oral): 11.3%
- body weight decrease ([1]; normal male beagles, 1 mg/kg/day oral): 9.1%
- body weight decrease ([1]; normal male beagles, 3 mg/kg/day oral): 12.7%
- body weight decrease ([1]; normal male beagles, 6 mg/kg/day oral): 21.0%
- Urine test - Glucose detection: number of dogs with grade +++, 3 (obese dogs; [2]): 2
- Urine test - Glucose detection: number of dogs with grade +++, 4 (obese dogs; [2]): 1
- Urine test - Glucose detection: number of dogs with grade ++, 2 (obese dogs; [2]): 1
- Urine test - Glucose detection: number of dogs with grade +, 1 (obese dogs; [2]): 1
- Urine test - Glucose detection: number of dogs with grade −, 0 (obese dogs; [2]): 0
- Urine test - Glucose detection: number of dogs with grade +++, 3 (obese dogs; [3]): 1
- Urine test - Glucose detection: number of dogs with grade +++, 4 (obese dogs; [3]): 1
- Urine test - Glucose detection: number of dogs with grade ++, 2 (obese dogs; [3]): 0
- Urine test - Glucose detection: number of dogs with grade +, 1 (obese dogs; [3]): 3
- Urine test - Glucose detection: number of dogs with grade −, 0 (obese dogs; [3]): 0
- Urine test - Glucose detection: number of dogs with grade +++, 3 (obese dogs; [4]): 1
- Urine test - Glucose detection: number of dogs with grade +++, 4 (obese dogs; [4]): 1
- Urine test - Glucose detection: number of dogs with grade ++, 2 (obese dogs; [4]): 1
- Urine test - Glucose detection: number of dogs with grade +, 1 (obese dogs; [4]): 2
- Urine test - Glucose detection: number of dogs with grade −, 0 (obese dogs; [4]): 0
- Urine test - Glucose detection: number of dogs with grade +++, 3 (obese dogs; [5]): 1
- Urine test - Glucose detection: number of dogs with grade +++, 4 (obese dogs; [5]): 1
- Urine test - Glucose detection: number of dogs with grade ++, 2 (obese dogs; [5]): 0
- Urine test - Glucose detection: number of dogs with grade +, 1 (obese dogs; [5]): 3
- Urine test - Glucose detection: number of dogs with grade −, 0 (obese dogs; [5]): 0
- Urine test - Glucose detection: number of dogs with grade +++, 3 (obese dogs; [6]): 1
- Urine test - Glucose detection: number of dogs with grade +++, 4 (obese dogs; [6]): 1
- Urine test - Glucose detection: number of dogs with grade ++, 2 (obese dogs; [6]): 2
- Urine test - Glucose detection: number of dogs with grade +, 1 (obese dogs; [6]): 1
- Urine test - Glucose detection: number of dogs with grade −, 0 (obese dogs; [6]): 0
- Urine test - Glucose detection: number of dogs with grade +++, 3 (obese dogs; [7]): 1
- Urine test - Glucose detection: number of dogs with grade +++, 4 (obese dogs; [7]): 1
- Urine test - Glucose detection: number of dogs with grade ++, 2 (obese dogs; [7]): 1
- Urine test - Glucose detection: number of dogs with grade +, 1 (obese dogs; [7]): 1
- Urine test - Glucose detection: number of dogs with grade −, 0 (obese dogs; [7]): 1
- Urine test - Glucose detection: number of dogs with grade +++, 3 (obese dogs; [8]): 0
- Urine test - Glucose detection: number of dogs with grade +++, 4 (obese dogs; [8]): 3
- Urine test - Glucose detection: number of dogs with grade ++, 2 (obese dogs; [8]): 1
- Urine test - Glucose detection: number of dogs with grade +, 1 (obese dogs; [8]): 1
- Urine test - Glucose detection: number of dogs with grade −, 0 (obese dogs; [8]): 0
- Urine test - Glucose detection: number of dogs with grade +++, 3 (obese dogs; [9]): 0
- Urine test - Glucose detection: number of dogs with grade +++, 4 (obese dogs; [9]): 5
- Urine test - Glucose detection: number of dogs with grade ++, 2 (obese dogs; [9]): 0
- Urine test - Glucose detection: number of dogs with grade +, 1 (obese dogs; [9]): 0
- Urine test - Glucose detection: number of dogs with grade −, 0 (obese dogs; [9]): 0
- Urine test - Glucose detection: number of dogs with grade +++, 3 (obese dogs; [10]): 0
- Urine test - Glucose detection: number of dogs with grade +++, 4 (obese dogs; [10]): 5
- Urine test - Glucose detection: number of dogs with grade ++, 2 (obese dogs; [10]): 0
- Urine test - Glucose detection: number of dogs with grade +, 1 (obese dogs; [10]): 0
- Urine test - Glucose detection: number of dogs with grade −, 0 (obese dogs; [10]): 0
- Urine test - Glucose detection: number of dogs with grade +++, 3 (obese dogs; [11]): 0
- Urine test - Glucose detection: number of dogs with grade +++, 4 (obese dogs; [11]): 4
- Urine test - Glucose detection: number of dogs with grade ++, 2 (obese dogs; [11]): 1
- Urine test - Glucose detection: number of dogs with grade +, 1 (obese dogs; [11]): 0
- Urine test - Glucose detection: number of dogs with grade −, 0 (obese dogs; [11]): 0
- Urine test - Glucose detection: number of dogs with grade +++, 3 (obese dogs; [12]): 1
- Urine test - Glucose detection: number of dogs with grade +++, 4 (obese dogs; [12]): 1
- Urine test - Glucose detection: number of dogs with grade ++, 2 (obese dogs; [12]): 0
- Urine test - Glucose detection: number of dogs with grade +, 1 (obese dogs; [12]): 0
- Urine test - Glucose detection: number of dogs with grade −, 0 (obese dogs; [12]): 3
- Urine test - Glucose detection: number of dogs with grade +++, 3 (obese dogs; [13]): 2
- Urine test - Glucose detection: number of dogs with grade +++, 4 (obese dogs; [13]): 3
- Urine test - Glucose detection: number of dogs with grade ++, 2 (obese dogs; [13]): 0
- Urine test - Glucose detection: number of dogs with grade +, 1 (obese dogs; [13]): 0
- Urine test - Glucose detection: number of dogs with grade −, 0 (obese dogs; [13]): 0
- Urine test - Glucose detection: number of dogs with grade +++, 3 (obese dogs; [14]): 0
- Urine test - Glucose detection: number of dogs with grade +++, 4 (obese dogs; [14]): 5
- Urine test - Glucose detection: number of dogs with grade ++, 2 (obese dogs; [14]): 0
- Urine test - Glucose detection: number of dogs with grade +, 1 (obese dogs; [14]): 0
- Urine test - Glucose detection: number of dogs with grade −, 0 (obese dogs; [14]): 0
- Urine test - Glucose detection: number of dogs with grade +++, 3 (obese dogs; [15]): 0
- Urine test - Glucose detection: number of dogs with grade +++, 4 (obese dogs; [15]): 5
- Urine test - Glucose detection: number of dogs with grade ++, 2 (obese dogs; [15]): 0
- Urine test - Glucose detection: number of dogs with grade +, 1 (obese dogs; [15]): 0
- Urine test - Glucose detection: number of dogs with grade −, 0 (obese dogs; [15]): 0
- Urine test - Glucose detection: number of dogs with grade +++, 3 (obese dogs; [16]): 1
- Urine test - Glucose detection: number of dogs with grade +++, 4 (obese dogs; [16]): 5
- Urine test - Glucose detection: number of dogs with grade ++, 2 (obese dogs; [16]): 0
- Urine test - Glucose detection: number of dogs with grade +, 1 (obese dogs; [16]): 0
- Urine test - Glucose detection: number of dogs with grade −, 0 (obese dogs; [16]): 0
- Urinary glucose (GLU) excretion (obese dogs; enavogliflozin-administered groups, particularly 0.2 mg/kg): higher
